Assay results published in ChEMBL document CHEMBL1158378, “QSAR model for predicting radical scavenging activity of di(hetero)arylamines derivatives of benzo[b]thiophenes” (Eur J Med Chem, 2009).

What follows are compounds tested on Radical scavenging activity (assay: Antioxidant activity assessed as inhibition of DPPH radical formation).
Type: functional
Work on Cc1cc2c(C)c(C)sc2cc1Nc1ccccc1Br yielded a pEC50 of 3.05.
Cc1cc2c(C)c(C)sc2cc1Nc1ccc(C=O)cc1 gave a pEC50 of 2.39.
In the case of Cc1sc2c(C)c(Nc3ccc(C#N)cc3)cc(C)c2c1C, the pEC50 is reported as 2.29.
In the case of COc1ccc(Nc2cc3sc(C)c(C)c3cc2C)c(Br)c1, the pEC50 is reported as 3.69.
Compound COc1ccc(Nc2cc3sc(C)c(C)c3cc2C)c(OC)c1 has a pEC50 of 4.07.
Cc1sc2c(C)c(Nc3ccccc3Br)cc(C)c2c1C was tested, and the pEC50 was 2.43.
Work on COc1ccc(Nc2csc3ccccc23)c(OC)c1 yielded a pEC50 of 4.06.
Work on COc1ccc(Nc2cc(C)c3c(C)c(C)sc3c2C)c(Br)c1 yielded a pEC50 of 3.98.
For COc1cc(Br)c(Nc2cc3sc(C)c(C)c3cc2C)cc1OC, the pEC50 was 3.81.
For Cc1cc2c(C)c(C)sc2cc1Nc1ccccc1I, the pEC50 was 2.91.
CCOC(=O)c1sc2ccccc2c1Nc1ccccc1O was tested, and the pEC50 was 3.91.
For Cc1sc2c(C)c(Nc3ccccn3)cc(C)c2c1C, the pEC50 was 2.1.
In the case of COc1ccc(Nc2cc(C)c3c(C)c(C)sc3c2C)cc1, the pEC50 is reported as 3.89.
COc1cccc(Nc2cc3sc(C)c(C)c3cc2C)c1 gave a pEC50 of 3.38.

Each compound was assayed on Radical scavenging activity (assay: Antioxidant activity assessed as inhibition of DPPH radical formation by Hatano's method).
Type: functional
Work on COc1ccc(Nc2cccc3c(C)c(C)sc23)cc1OC yielded a pEC50 of 4.26.
Cc1sc2c(Nc3ccccn3)cccc2c1C gave a pEC50 of 2.26.
With Fc1ccccc1Nc1csc2ccccc12 the pEC50 was 3.81.
For CCOC(=O)c1sc2ccccc2c1Nc1ccc(O)cc1O, the pEC50 was 3.84.
COc1ccc(Nc2cccc3c(C)c(C)sc23)cc1 was tested, and the pEC50 was 4.3.
In the case of CCOC(=O)c1sc2ccccc2c1Nc1ccc(OC)cc1OC, the pEC50 is reported as 3.77.
COc1ccc(Nc2cc3sc(C)c(C)c3cc2C)cc1 was tested, and the pEC50 was 4.14.
Compound COc1cccc(Nc2cccc3c(C)c(C)sc23)c1 has a pEC50 of 2.81.
With Cc1sc2c(Nc3cccnc3)cccc2c1C the pEC50 was 2.5.
For COc1ccc(Nc2cc3sc(C)c(C)c3cc2C)cc1OC, the pEC50 was 4.3.
With Cc1sc2c(Nc3cccc(C#N)c3)cccc2c1C the pEC50 was 1.84.
Compound COc1ccc(Nc2c(C(=O)O)sc3ccccc23)c(OC)c1 has a pEC50 of 3.61.
